The values that follow come from article PMC7033278, “A Nonpeptide Oxytocin Receptor Agonist for a Durable Relief of Inflammatory Pain” (Scientific Reports, 2020).

One series concerns hOTR. Details: method as in PMID 30199637. As to conditions: human receptor, cited from earlier work.
A short description of series [1]: thermodynamic solubility in PBS pH 7.4. In kind it is physicochemical. As to conditions: PBS buffer, read-out: thermodynamic water solubility (S). Here is the method:
Solubility of LIT-001 was determined from solution of about 1 mg of compound in 500 μl of PBS at pH 7.4. (Figs. 1, S1) The solution was stirred at room temperature for 24 h and centrifuged at 15.000 × g for 5 min. The supernatant was diluted with a mixture of acetonitrile and water and analyzed by HPLC with a diode detector (Gilson; Kinetex 2.6 μm C18 100 A 50 × 4.6 mm column). […] The lipophilicity (LogD7.4) of LIT-001 was measured using […] of a stock solution diluted with different concentrations of octanol and PBS to cover a LogP range from −2 to + 4.5 in a final volume of 1 ml. After stirring for 1 h at room temperature (≈ 20 °C), the samples were centrifuged and the different phases were analyzed by HPLC (Gilson; diode detector, Kinetex 2.6 μ C18 100 A 50 × 4.6 mm column).

Another series has as its target hERG (Homo sapiens, UniProt Q12809). In words: hERG inhibition, patch clamp method. It is filed as cell-based.
Another series concerns V1aR (hV1AR). Details: method as in PMID 30199637. As to conditions: cited from earlier work.
For series [2], the system named is CFA-induced inflammatory pain model. Nature of the series: CFA-induced edema size (hindpaw diameter). The following applies: rat, i.p. LIT-001 10 mg/kg at D1 after CFA. In kind it is in vivo. As for the experimental part: LIT-001 was prepared as described in Frantz et al.[20]. For in vivo biological assays, it was dissolved in carboxymethyl cellulose (CMC, 1%) - NaCl (0.9%) and administered at the dose of 10 mg/kg. LIT-001 or vehicle were injected intraperitoneally (i.p.), in a volume of 10 ml/kg[20], 24 h after the induction of the CFA-induced painful inflammatory sensitization. To confirm the implication of the OTR we injected (i.p.) also L-368,899 (Sigma, St. Louis, MO) (1 mg/kg), an OTR antagonist, in combination with LIT-001 in another group of rats[11].
Male Wistar rats (300 g; JANVIER LABS, Le Genest St. Isle, France) were used for this study. They were housed by groups of 3 or 4 under standard conditions (room temperature, 22 °C; 12/12 h light/dark cycle) with ad libitum access to food and water and behavioral enrichment. All animals were manipulated and habituated to the tests and to the room for at least 2 weeks. All behavioral tests were done during the light period (i.e., between 7:00 and 19:00). All the procedures were performed in accordance with European committee council Direction, authorization from French Department of Agriculture and from the regional ethic committee.
In order to induce a peripheral inflammation, 100 μl of complete Freund adjuvant (CFA; Sigma, St. Louis, MO), was injected in the right hindpaw of the rat. […]

Series [3] is described as follows: stability in PBS solution over 24 h. The following applies: PBS pH 7.4, room temperature, after 24 h. It is filed as physicochemical.
Series [4] can be described thus: distribution and clearance after i.p. injection, LC-MS/MS. As to conditions: ip, rat, 10 mg/kg i.p. In kind it is in vivo. As for the experimental part:
Brains from rat injected with 10 mg/kg (18.8 µmol/kg) i.p. of LIT-001 were homogenized with an Ultra Turrax instrument (Ika, Staufen, Germany) in 2 ml of H2O (Figs. 4, S4). The homogenates were then sonicated (3 times 10 s, 100 W) with a Vibra Cell apparatus (Sonics, Newtown, U.S.A.). Protein concentrations were determined using the Bradford method (Protein Assay, Bio-Rad, Marne-la-Coquette, France). 400 µl was mixed with 4 ml of ice cold acetonitrile (ACN) and let 30 min on ice. Samples were then centrifuged (20,000 × g, 30 min) at 4 °C. Supernatants were dried under vacuum and resuspended in 400 µl ACN 10%/H2O 89.9%/formic acid 0.1% (v/v/v) and a volume of 5 µl was injected on the LC-MS/MS. For CSF, plasma and urine, 200 µl of fluids were mixed with 1 ml of ice cold acetonitrile (ACN) and let 30 min on ice. Samples were then centrifuged (20,000 × g, 30 min) at 4 °C. Supernatants were dried under vacuum and suspended in 200 µl ACN 10%/H2O 89.9%/formic acid 0.1% (v/v/v) and a volume of 5 µl was injected on the LC-MS/MS.
Analyses were performed on a Dionex Ultimate 3000 HPLC system (Thermo Scientific, San Jose, USA) coupled with a triple quadrupole Endura mass spectrometer (Thermo Scientific). The system was controlled by Xcalibur v.2.0 software (Thermo Electron). Samples were loaded onto an Accucore C18 RP-MS column (ref 17126–151030; 150 × 1 mm 2.6 μm, Thermo Scientific) heated at 40 °C. The presence of LIT-001 was studied using the multiple reaction monitoring mode (MRM). Elution was performed at a flow rate of 150 µl/min by applying a linear gradient of mobile phases A/B. Mobile phase A corresponded to ACN 1%/H2O 98.9%/formic acid 0.1% (v/v/v), whereas mobile phase B was ACN 99.9%/formic acid 0.1% (v/v). The gradient used is detailed in Fig. S4. […] Desolvation (nitrogen) sheath gas was set to 27 Arb and Aux gas was set to 9 Arb. The ion transfer tube was heated at 312 °C. Q1 and Q2 resolutions were set at 0.7 FWHM, whereas collision gas (CID, argon) was set to 2 mTorr. Identification of the compounds was based on precursor ion, selective fragment ions and retention times obtained for LIT-001. Selection of the monitored transitions and optimization of collision energy and RF Lens parameters were manually determined (see Fig. S4 for details). Qualification and quantification were performed in MRM mode. Quantification was obtained using Quan Browser software (Thermo Scientific). For tissues and fluids, LIT-001 was quantified using calibration curves of external standards of LIT-001 (125 fmol to 100 pmol/injection; Fig. S4) added to urine, plasma or brain extracts of naive rat and submitted to the same procedure described for respective fluids and tissue recovery. The amounts of LIT-001 measured in samples fit within the standard curve limits, with typical analytical ranges (the range of amounts that can be accurately quantified) from […].

Where [5] appears, read: CSF, read-out: concentration in CSF.
Setting [6] is: brain, read-out: concentration in brain.
Where [7] appears, read: plasma, read-out: concentration in plasma.
[8] abbreviates: urine, read-out: concentration in urine.

Like-named read-outs stand apart in the source and are kept apart here.

hERG, sequence (Q12809 whole entry): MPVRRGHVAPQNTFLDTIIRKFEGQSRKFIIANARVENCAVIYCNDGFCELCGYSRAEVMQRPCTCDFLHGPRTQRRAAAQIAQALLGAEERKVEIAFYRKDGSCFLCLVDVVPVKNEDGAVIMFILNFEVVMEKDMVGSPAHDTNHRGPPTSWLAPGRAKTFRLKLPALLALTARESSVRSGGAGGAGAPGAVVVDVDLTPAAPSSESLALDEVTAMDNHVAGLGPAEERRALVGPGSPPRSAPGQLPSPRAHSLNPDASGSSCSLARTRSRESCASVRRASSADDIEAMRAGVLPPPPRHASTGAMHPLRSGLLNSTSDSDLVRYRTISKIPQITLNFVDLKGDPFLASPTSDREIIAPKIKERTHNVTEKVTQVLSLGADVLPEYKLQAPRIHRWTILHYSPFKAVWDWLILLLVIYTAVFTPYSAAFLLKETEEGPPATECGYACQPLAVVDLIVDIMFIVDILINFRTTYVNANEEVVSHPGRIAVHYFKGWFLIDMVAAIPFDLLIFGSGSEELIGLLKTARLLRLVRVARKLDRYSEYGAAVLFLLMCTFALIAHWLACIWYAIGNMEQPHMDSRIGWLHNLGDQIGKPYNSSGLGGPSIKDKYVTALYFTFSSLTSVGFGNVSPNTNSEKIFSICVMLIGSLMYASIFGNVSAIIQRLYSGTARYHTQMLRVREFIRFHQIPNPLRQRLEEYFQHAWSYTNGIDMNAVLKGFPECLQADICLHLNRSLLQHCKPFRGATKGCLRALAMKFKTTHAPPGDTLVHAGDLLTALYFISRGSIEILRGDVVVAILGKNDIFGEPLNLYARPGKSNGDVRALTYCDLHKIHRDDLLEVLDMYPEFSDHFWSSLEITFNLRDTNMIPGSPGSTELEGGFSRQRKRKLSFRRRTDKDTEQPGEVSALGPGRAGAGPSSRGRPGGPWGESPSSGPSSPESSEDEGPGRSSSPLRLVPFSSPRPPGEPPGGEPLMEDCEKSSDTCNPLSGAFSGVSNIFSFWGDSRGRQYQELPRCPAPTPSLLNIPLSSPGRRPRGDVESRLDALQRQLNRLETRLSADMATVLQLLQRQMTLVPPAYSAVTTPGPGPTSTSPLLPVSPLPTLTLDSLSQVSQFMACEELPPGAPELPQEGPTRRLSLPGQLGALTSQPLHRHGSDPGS

For the compound `Cc1cc(C(=O)N2Cc3cnn(C)c3Nc3ccccc32)ccc1CNC(=O)N1CCC[C@H]1C(=S)N(C)C` [LIT-001], the EC50 in the series with hOTR (agonist) was 25 nM. The “Emax (hOTR)” value in the series with hOTR (efficacy) was 96%. Besides, the thermodynamic solubility at 24 h in series [1] (pH 7.4, aqueous buffer, thermodynamic from solid) turned out to be 530 ± 30 µM; in series [1] (pH 7.4), 340 µg/mL. Also, testing at 1 µM against hERG (1 μM) gave an inhibition of 9.5%. For the same compound, the inhibition at 10 µM at hERG (10 μM) was determined as 10.6%. Also, the “EC50 (hV1AR)” value in the series with V1aR (hV1AR) (agonist mode) is “non significant”. Also, the IC50 in the series with V1aR (hV1AR) (antagonist mode, read-out: IC50, antagonism of vasopressin induced calcium release on V1aR) was 5.9 µM. For the same compound, the CFA-induced edema size in series [2] came to 9.49 ± 0.23 mm. Besides, the “degradation in PBS solution” value in series [3] is on record as “No degradation”. Further, the concentration at 60 min in series [4] (setting [5]) is 7.4 ± 4.4 nM; in series [4] (setting [6]), 1.6 ± 0.8 nM; in series [4] (setting [7]) it was 626 ± 112 nM; in series [4] (setting [8]), 52500 ± 14200 nM. For the same compound, the concentration at 300 min stood at 1.5 ± 1.1 nM in series [4] (setting [5]), 0.6 ± 0.4 nM in series [4] (setting [6]), 95.2 ± 36.5 nM in series [4] (setting [7]) and 189000 ± 8480 nM in series [4] (setting [8]). Also, in series [4] (plasma, 30 min (highest)), the concentration at 30 min is 650 ± 200 nM.
